Experimental data published in PubChem BioAssay (NCI).
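Protocol summary: plate cells (96-well), add compound at 5 concentrations, incubate 48 h, interpolate endpoints linearly. The concentration for full growth arrest is given as TGI.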

How the values were obtained:
Assay in all cases: NCI anticancer screen, dose series, 48 h
[1] = system: CAKI-1 renal
[2] = system: CCRF-CEM leukemia
[3] = system: HCC-2998 colon
[4] = system: MALME-3M melanoma
[5] = system: MDA-MB-435
[6] = system: MDA-N
[7] = system: MOLT-4 leukemia
[8] = system: RPMI-8226 leukemia
[9] = system: SF-539 CNS
[10] = system: UACC-62 melanoma

SMILES	TGI [1] [µM]	TGI [2] [µM]	TGI [3] [µM]	TGI [4] [µM]	TGI [5] [µM]	TGI [6] [µM]	TGI [7] [µM]	TGI [8] [µM]	TGI [9] [µM]	TGI [10] [µM]
Cc1cn2c(C)csc2c1P(=O)(OC(C)C)OC(C)C	> 100	> 100	> 100	> 100	> 100	> 100	> 100	> 100	> 100	> 100
COC(=O)c1cc(C)ccc1CC(Cc1ccc(C)cc1)C(=O)OC (stereo not given)	> 100	> 100	> 100	95.5	> 100	> 100	> 49.5	> 100	> 100	> 100
COC(=O)C1=C(C)NC(C)=C([N+](=O)[O-])C1c1cccc(N=O)c1 (stereo not given)	20.6	> 100	34.8	25.2	25.4	21.6	> 100	> 100	30.9	29
Cc1cc2nc(-c3cc(C(C)(C)C)c(O)c(C(C)(C)C)c3)[nH]c2cc1C	> 26.2	5.71	> 100	> 100	> 100	> 44.5	27.1	> 100	> 100	2.74
COc1ccc(/C=N/N2C(=O)c3c(N)c(C#N)c(-c4ccccc4)c(-c4ccccc4)c3C2=O)cc1	> 100	> 100	> 100	> 100	> 100	> 100	> 100	> 100	> 100	> 100
C=C(C)[C@@]1(O[Si](C)(C)C)CCCC[C@@H]1CC(Sc1ccccc1)Sc1ccccc1	25.8	36.2	29.8	24.4	31.6	32.7	25.7	49.3	26.5	26.9
Cc1cc(/N=C/c2ccc(C#N)cc2)n(-c2ccccc2)n1	> 100	> 100	> 100	> 100	> 100	> 100	> 100	> 100	> 100	> 100
COC(=O)C1OC(O[C@H]2CC[C@]3(C)[C@H]4CC=C5[C@@H]6CC(C)(C)CC[C@]6(C(=O)OC6OCC(O)C(O)C6OC6OC(C)C(OC7OCC(OC8OCC(O)C(O)C8O)C(O)C7O)C(O)C6O)[C@H](O)C[C@@]5(C)[C@]4(C)CC[C@H]3C2(C)C)C(O)C(O)C1O (stereo not given in full)	11.7	> 100	3.06	14.5	3.58	3.44	> 100	> 50.7	> 100	10.6
O/C(=C\c1nc2ccccc2nc1NC12CC3CC(CC(C3)C1)C2)c1ccc(Br)cc1	> 10	> 10	> 10	> 10	> 10	> 10	> 10	> 10	> 10	> 10
COC(=O)[C@H](C)NC(=O)[C@H](CSC)N1C(=O)N[C@@H](C(C)C)C1=O	> 100	> 100	> 100	> 100	> 100	> 100	> 100	> 100	> 100	> 100
CC1=CC(=O)C(C(O)(C(F)(F)F)C(F)(F)F)C(C)(C)C1 (stereo not given)	> 10	> 10	> 10	> 10	> 10	> 10	> 10	> 10	> 10	> 10
COc1ccc(N=Nc2c3c(c(O)c4ccccc24)CCC(C)(C)O3)cc1	72.3	41.7	24.5	40.6	32.4	30.6	> 100	98.1	62.3	28.6
O=C(c1ccccc1)N1C(=S)N=C(Nc2ccccc2)C1=Nc1ccccc1	> 100	> 100	> 100	> 100	> 100	> 100	> 100	> 100	> 100	> 100
CC/C(Cl)=N\OC(=O)Nc1ccc(F)c([N+](=O)[O-])c1	7.7	> 20	> 100	4.35	33.5	39.6	> 36.3	> 25.3	> 100	35.8
O=C(O)CC(NC(=O)/C(=C/c1ccccc1O)NC(=O)c1ccccc1)C(=O)O (stereo not given)	> 100	> 100	> 100	> 100	> 100	> 100	> 100	> 100	> 100	> 100
Cc1ccc(S(=O)(=O)NC(=O)NNc2ccc(F)cc2)cc1	> 100	> 100	> 100	> 100	> 100	> 100	> 100	> 58.2	> 100	> 100
Cc1c(C#N)c(N)n(C2OCC(O)C(O)C2O)c(=S)c1C#N (stereo not given)	> 100	> 100	> 100	> 100	> 100	> 100	> 100	> 100	> 100	> 100
COc1cc(CNc2nc3cc(C(F)(F)F)ccc3nc2-c2ccccc2)cc(OC)c1OC	> 100	> 100	52.4	72	> 100	> 100	> 100	> 100	> 100	33.3
Cc1cc2c(nn1)-c1ccccc1C2=O	> 10	> 10	> 10	> 10	> 10	> 10	> 10	> 10	> 10	> 10
O=C1CC(Sc2nc3ccc(I)cc3c(=O)n2Cc2ccccc2)C(=O)NN1 (stereo not given)	11.2	24.1	31.8	33.1	33.9	33.4	42.6	45.5	35.5	29.3
COc1ccc(N=C2C(=S)N(c3ccc(OC)cc3)/C(=N/S(=O)(=O)c3ccccc3)N2c2ccccc2)cc1	28.2	> 100	> 57.9	36.2	20.6	8.81	> 100	> 100	25.1	16.2
O=C(CCCN1CCC2(CC1)C(=NC1CCCCC1)NC(=O)N2c1ccccc1)c1ccc(F)cc1	> 100	64.4	37.7	29.9	38.8	34.9	57.2	49.5	33.9	46.5
O=C(CCc1cccc(O)c1)NCCCNC(=O)CCc1cccc(O)c1	> 100	> 100	> 100	> 100	> 100	> 100	> 100	> 100	> 100	> 100
c1ccc(C2=Nn3c(CCCCCCCCc4nnc5n4N=C(c4ccccc4)CS5)nnc3SC2)cc1	> 100	> 59.7	> 100	> 89.6	> 100	> 100	> 77.9	> 100	46.4	> 100
CC1=C[C@@H](C)C[C@]2(C)CC[C@H](O2)[C@]23CC[C@](C(=O)O)(C[C@H](O2)[C@@H]2O[C@@](C)(CC2=O)[C@@H](O)[C@H]2CC[C@@]4(CCC[C@@H](O4)[C@H](C)C(=O)O[C@H]4C[C@H]([C@]5(O)OCC[C@H](C)[C@@H]5O)O[C@H]4C=C1)O2)O3	> 10	> 10	> 10	> 10	> 10	> 10	> 10	> 10	> 10	> 10
COc1cc(OCc2ccc3nc(OC)c(OC)nc3c2)cc(OC)c1OC	> 10	> 10	> 10	> 10	> 10	> 10	> 10	> 10	> 10	> 10
COc1c(O)c(O)cc2c1-c1ccc(OC)c(=O)cc1C(NC(C)=O)CC2 (stereo not given)	95.6	40.2	74.8	> 100	3.75	4.84	43.6	54.9	10.4	24.8
N#CCCN(CCC#N)c1ccc(/C=C2\SC(=S)NC2=O)cc1Br	> 100	> 100	> 100	> 100	> 100	> 100	> 100	> 100	> 100	> 100
COP(=O)(OC)C12CCOCCN1c1ccccc1C2=O (stereo not given)	> 100	> 100	> 100	> 100	> 100	> 100	> 100	> 100	> 100	> 100
CC(C)CCn1nc(N)c2nc3ccccc3nc21	> 100	> 100	> 100	> 100	> 100	> 100	94.9	> 100	> 100	> 100
